Measured values reported in PubChem BioAssay (NCI).
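Assay format: 96-well plates, 48-hour exposure. Abbreviation: GI50, concentration required for 50% inhibition of growth. Definition used: TGI = concentration required for complete inhibition of growth.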

Tests used:
Experiment in all cases: NCI anticancer screen, dose series, 48 h
SK-MEL-5 melanoma = test system: SK-MEL-5 melanoma
SN12C renal = test system: SN12C renal
COLO 205 colon = test system: COLO 205 colon
LOX IMVI melanoma = test system: LOX IMVI melanoma
TK-10 renal = test system: TK-10 renal
HCT-15 colon = test system: HCT-15 colon
HT29 colon = test system: HT29 colon
CCRF-CEM leukemia = test system: CCRF-CEM leukemia
U251 CNS = test system: U251 CNS
HCC-2998 colon = test system: HCC-2998 colon

SMILES	TGI (SK-MEL-5 melanoma)	TGI (SN12C renal)	TGI (COLO 205 colon)	TGI (LOX IMVI melanoma)	TGI (TK-10 renal)	TGI (HCT-15 colon)	TGI (HT29 colon)	TGI (CCRF-CEM leukemia)	TGI (U251 CNS)	TGI (HCC-2998 colon)	GI50 (SK-MEL-5 melanoma)	GI50 (SN12C renal)	GI50 (COLO 205 colon)	GI50 (LOX IMVI melanoma)	GI50 (TK-10 renal)	GI50 (HCT-15 colon)	GI50 (HT29 colon)	GI50 (CCRF-CEM leukemia)	GI50 (U251 CNS)	GI50 (HCC-2998 colon)
CCCCc1c2c(nc3c1CCc1cc4c(nc1-3)-c1nc3c(c(CCCC)c1CC4)CCC/C3=C\c1ccccc1)/C(=C/c1ccccc1)CCC2	> 100 µM	> 100 µM	> 100 µM	> 100 µM	> 100 µM	> 100 µM	> 100 µM	> 100 µM	> 100 µM	> 100 µM										
C#CCNC(Cc1cnc[nH]1)C(=O)O (stereo not drawn)	> 100 µM	> 100 µM	> 100 µM	> 100 µM	> 100 µM	> 100 µM	> 100 µM	> 100 µM	> 100 µM											
N#Cc1c(NC(=O)c2ccccc2)sc2c1CCC(=O)C2	3.22 µM	7.51 µM	4.46 µM	5.97 µM	28.7 µM	2.39 µM	> 100 µM	> 100 µM	16.9 µM	10.3 µM	1.65 µM	1.16 µM	1.93 µM	0.821 µM	1.98 µM	0.395 µM	0.747 µM	0.43 µM	1.52 µM	1.82 µM
COc1cccc(NC(=O)CSc2nnc(-c3ccc(N=Cc4ccc(Cl)cc4)cc3)o2)c1	34.6 µM	43 µM	41.4 µM	37.7 µM	74.3 µM	33.8 µM	29.8 µM	> 100 µM	30.8 µM											
OC(c1ccc(Cl)cc1)(c1ccc(Cl)cc1)C(O)(c1ccc(Cl)cc1)c1ccc(Cl)cc1		> 100 µM				> 100 µM	> 100 µM	> 100 µM		> 100 µM		3.06 µM				2.93 µM	1.72 µM	3.41 µM		2.56 µM
Nc1nc(Cl)cc(N=Nc2ccccc2)n1	40 µM	> 100 µM	> 100 µM	67 µM	> 100 µM	35 µM	> 100 µM	> 100 µM												
CC(CCC(=O)O)[C@H]1CCC2[C@H]3C(CC[C@@]21C)[C@@]1(C)CCC(O)C[C@H]1C[C@@H]3O (stereo partly drawn)		> 100 µM	> 100 µM	> 100 µM	> 100 µM	> 100 µM	> 100 µM	> 100 µM	> 100 µM	> 100 µM										
CC(=O)NC1C(CO)O[C@@H]2OC(C)(C)O[C@H]12 (stereo partly drawn)		> 100 µM		> 100 µM	> 100 µM	> 100 µM	> 100 µM	> 100 µM	> 100 µM	> 100 µM										
CCCn1c(C23CC4CC(CC(C4)C2)C3)nc2ccc(Cl)cc2c1=O	> 100 µM	> 100 µM	> 100 µM	> 100 µM	> 100 µM	> 100 µM	80.2 µM	> 100 µM	> 100 µM											
CN(CCc1ccc(Cl)c(Cl)c1)[C@H]1CCCC[C@H]1N1CCCC1	> 100 µM	> 100 µM	> 100 µM	> 100 µM	> 100 µM	> 100 µM	> 100 µM		> 100 µM	> 100 µM										
c1ccc(CCN2CCCCCC2)nc1	> 100 µM	> 100 µM	> 100 µM	> 100 µM	> 100 µM	> 100 µM	> 100 µM	> 100 µM	> 100 µM											
CNC(=O)CCC(NC(C)=O)C(=O)NC(Cc1ccc(NC(=O)CCCCC(C)=O)cc1)C(=O)NC(CCC(=O)NC)C(=O)NC (stereo not drawn)	> 100 µM	> 100 µM	> 100 µM	> 100 µM	> 100 µM	> 100 µM	> 100 µM		> 100 µM	> 100 µM										
CN(C)CCOC(=O)COc1ccc(Cl)cc1	> 100 µM	> 100 µM	> 100 µM	> 100 µM		> 100 µM	> 100 µM	> 100 µM	> 100 µM	> 100 µM										
O=C1/C(=C/c2ccccc2)CCc2ccc(Cl)nc21	20.1 µM	18.6 µM	40.5 µM		32.7 µM	11.4 µM	3.78 µM	5.75 µM	16 µM	48.4 µM										
O=C(c1ccccc1)c1c(C(F)(F)F)n([O-])c2ccccc2[n+]1=O				> 100 µM	3.6 µM	> 100 µM	2.23 µM	> 100 µM	> 100 µM											
COc1cc(C2C3=C(CCC3=O)Oc3cc4c(cc32)OCO4)cc(OC)c1OC (stereo not drawn)	15.2 µM	> 100 µM	1.81 µM	> 100 µM	69.2 µM	> 100 µM	> 100 µM	> 100 µM	> 100 µM											
CN1CCn2c(Br)ccc2C1=O		> 100 µM	> 100 µM	> 100 µM	> 100 µM	> 100 µM	> 100 µM	> 100 µM	> 100 µM	> 100 µM										
Cc1cc2ccccc2c[n+]1CC(O)C[n+]1cc2ccccc2cc1C	> 100 µM	> 100 µM	> 100 µM	> 100 µM	> 100 µM	> 100 µM	> 100 µM		> 100 µM	> 100 µM										
CC(C)CCC[C@@H](C)[C@H]1CC[C@H]2[C@@H]3CC=C4C[C@@H](OC(=O)c5cccc6c(=O)c7ccccc7[nH]c56)CC[C@]4(C)[C@H]3CC[C@]12C	> 75 µM	> 75 µM	> 75 µM	> 75 µM	> 75 µM	> 75 µM	> 75 µM		> 75 µM	> 75 µM										
Cc1c2c3cc(O)ccc3nc-2n(C)c2ccccc12	2.29 µM	4.38 µM			9.82 µM	10.5 µM	7.26 µM	4.37 µM	6.91 µM	6.28 µM										
COc1ccc(/C=C2\Cc3ccccc3C2=O)cc1OC	> 100 µM	> 100 µM	> 100 µM		> 100 µM	> 100 µM	> 100 µM	> 100 µM	> 100 µM	> 100 µM										
COc1cc2cc(C(=O)N3CC(CCl)c4c3cc(N)c3ccccc43)[nH]c2cc1OCCN(C)C (stereo not drawn)		0.5 µM	0.00971 µM		8.67 µM	5.45 µM	5.17 µM	< 0.005 µM		0.535 µM										
